The record followed here is article PMC3914206.

What all share (format): binding
Holding throughout (details): Compound Concentration 10 µM

Assay [1] concerns the target T1, panel of 442 kinases (Homo sapiens, UniProt O15075).
T1 construct: purchased KINOMEscan
From the text: (§1) We assessed the selectivity of members of this scaffold using the KINOMEscan methodology across a near comprehensive panel of 442 kinases [[18,27]].

The target in assay [2] is T2, panel of 442 kinases (Homo sapiens, UniProt P15735).
T2 construct: purchased KINOMEscan
T2 sequence (P15735 1-406): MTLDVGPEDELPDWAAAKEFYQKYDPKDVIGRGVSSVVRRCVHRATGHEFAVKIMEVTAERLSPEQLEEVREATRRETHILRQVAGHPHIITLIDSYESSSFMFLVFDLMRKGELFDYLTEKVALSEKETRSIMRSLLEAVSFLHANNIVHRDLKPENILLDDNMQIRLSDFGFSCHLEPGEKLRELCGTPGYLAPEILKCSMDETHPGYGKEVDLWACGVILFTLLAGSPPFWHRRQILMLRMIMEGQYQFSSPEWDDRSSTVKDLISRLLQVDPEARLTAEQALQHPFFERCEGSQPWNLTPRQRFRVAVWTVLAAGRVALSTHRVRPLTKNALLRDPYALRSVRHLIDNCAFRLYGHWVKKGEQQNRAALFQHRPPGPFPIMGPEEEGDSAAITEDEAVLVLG
From the text: as §1

The target of assay [3] is T3, panel of 442 kinases (Homo sapiens, UniProt P42679).
T3 construct: purchased KINOMEscan
T3 sequence (P42679 1-507): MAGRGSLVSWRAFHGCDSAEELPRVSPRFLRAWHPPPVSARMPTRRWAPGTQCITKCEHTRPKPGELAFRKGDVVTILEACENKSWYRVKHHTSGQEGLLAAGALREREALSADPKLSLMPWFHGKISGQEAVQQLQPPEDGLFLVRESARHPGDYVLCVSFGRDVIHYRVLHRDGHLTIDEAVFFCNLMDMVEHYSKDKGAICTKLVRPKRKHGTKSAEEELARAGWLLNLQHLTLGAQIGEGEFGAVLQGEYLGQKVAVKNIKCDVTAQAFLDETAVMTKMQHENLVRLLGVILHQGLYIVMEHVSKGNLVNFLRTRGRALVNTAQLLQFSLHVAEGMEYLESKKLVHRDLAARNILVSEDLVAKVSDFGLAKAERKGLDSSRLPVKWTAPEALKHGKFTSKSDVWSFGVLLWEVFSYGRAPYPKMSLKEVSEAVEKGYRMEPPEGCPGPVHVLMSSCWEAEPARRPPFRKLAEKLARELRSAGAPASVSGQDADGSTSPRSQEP
From the text: as §1

T1 sequence (O15075 whole entry): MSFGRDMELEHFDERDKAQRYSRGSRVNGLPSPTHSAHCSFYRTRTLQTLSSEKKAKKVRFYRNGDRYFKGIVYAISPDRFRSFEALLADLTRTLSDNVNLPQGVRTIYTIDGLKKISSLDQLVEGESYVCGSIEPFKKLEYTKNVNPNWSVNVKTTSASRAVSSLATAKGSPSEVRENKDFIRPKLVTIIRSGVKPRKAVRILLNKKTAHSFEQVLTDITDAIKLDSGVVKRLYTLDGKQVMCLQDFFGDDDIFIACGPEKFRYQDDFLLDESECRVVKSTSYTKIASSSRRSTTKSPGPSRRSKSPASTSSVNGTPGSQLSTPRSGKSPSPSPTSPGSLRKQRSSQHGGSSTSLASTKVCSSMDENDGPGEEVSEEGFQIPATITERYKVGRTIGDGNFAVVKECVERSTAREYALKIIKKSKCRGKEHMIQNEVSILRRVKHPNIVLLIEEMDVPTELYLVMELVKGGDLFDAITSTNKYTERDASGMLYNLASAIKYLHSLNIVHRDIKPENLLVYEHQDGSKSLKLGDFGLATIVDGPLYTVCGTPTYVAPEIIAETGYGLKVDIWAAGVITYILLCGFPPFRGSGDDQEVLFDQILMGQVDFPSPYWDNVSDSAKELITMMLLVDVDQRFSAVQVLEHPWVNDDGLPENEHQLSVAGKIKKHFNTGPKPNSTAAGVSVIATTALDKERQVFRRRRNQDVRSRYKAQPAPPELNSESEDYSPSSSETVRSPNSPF

Regarding `COc1cc(C(=O)N2CCC(N3CCN(C)CC3)CC2)ccc1Nc1ncc2c(n1)N(C)c1ccccc1C(=O)N2C` [15 (LRRK2-IN-1)], the “KINOMEscan: DCAMKL1” value at panel of 442 kinases [1] is recorded as 4.2. For the same compound, on panel of 442 kinases [2], the “KINOMEscan: PHKG2” value is reported as 33. In addition, the “KINOMEscan: CTK” value on panel of 442 kinases [3] was determined as 100.

Consider `COc1cc(C(=O)N2CCC(N3CCN(C)CC3)CC2)ccc1Nc1ncc2c(n1)N1CCc3cccc(c31)C(=O)N2C` [Compound 24], for which the “KINOMEscan: DCAMKL1” value on panel of 442 kinases [1] is 6.4. Besides, the “KINOMEscan: PHKG2” value on panel of 442 kinases [2] is reported as 47.

`COc1cc(C(=O)N2CCC(N3CCN(C)CC3)CC2)ccc1Nc1ncc2c(n1)N(C1CCCC1)c1ccccc1C(=O)N2C` [Compound 25, 11-cyclopentyl-2-((2-methoxy-4-(4-(4-methylpiperazin-1-yl)piperidine-1-carbonyl)phenyl)amino)-5-methyl-5H-benzo[e]pyrimido[5,4-b][1,4]diazepin-6(11H)-one]: at panel of 442 kinases [1], the “KINOMEscan: DCAMKL1” value amounted to 8.4. Besides, on panel of 442 kinases [2], the “KINOMEscan: PHKG2” value turned out to be 68. In addition, the “KINOMEscan: CTK” value at panel of 442 kinases [3] is 100.

Consider `CCOc1cc(C(=O)N2CCC(N3CCN(C)CC3)CC2)ccc1Nc1ncc2c(n1)N(C1CCCC1)c1ccccc1C(=O)N2C` [Compound 26], for which the “KINOMEscan: PHKG2” value on panel of 442 kinases [2] is listed as 90. The “KINOMEscan: CTK” value at panel of 442 kinases [3] came out at 89.
